According to PMC6748410, “A phase 2 study of an oral mTORC1/mTORC2 kinase inhibitor (CC-223) for non-pancreatic neuroendocrine tumors with or without carcinoid symptoms” (PLoS ONE, 2019):

Assays:
[1] = test system: human carcinoid xenografts that secrete serotonin; design: method as in PMID 28864682; details: mice bearing human carcinoid xenografts; cited from earlier work
[2] = 28-day GLP toxicology study, rat; assay type: in vivo
Procedure: A dose of 7.5 mg/day is proposed as the starting dose in this protocol. This dose is based on the recommendations in the March 2010 FDA Guidance for Industry entitled, “S9 Nonclinical Evaluation for Anticancer Pharmaceuticals,” where a start dose for first administration in humans should be either one-tenth the STD10 in rodents, or one-sixth of the HNSTD if the nonrodent is the most appropriate species. The conversion factors from the July 2005 FDA Guidance for Industry entitled, “Estimating the Maximum Safe Starting Dose in Initial Clinical Trials for Therapeutics in Adult Healthy Volunteers,” were used to convert the animal dose to the HED. The dose was converted to milligrams based on a 60-kg human body weight.
Species Animal Dose HED (mg/kg) HED (mg) Safety Factor Start Dose (mg) […]
Since the dog was identified as the most sensitive species in the 28-day GLP toxicology studies, the start dose for the study would be 8.2 mg/day. Based on available dosage strengths of the IP, a dose of 7.5 mg/day of CC-223 is deemed to be an acceptable starting dose for this initial trial in […]
Part B will consist of approximately 230 patients with selected tumor types to further assess the safety profile and provide preliminary efficacy information. […]

[3] = test system: serum hormones (CgA, gastrin, glucagon, serotonin); assay: Serum hormone changes from baseline; assay type: in vivo, human; details: among 35 patients with elevated baseline levels in at least one hormone
Procedure: Central laboratories conducted serial stimulated blood biomarker assays in monocytes (CD14+) for p4E-BP1 and pPKB (also known as pAKT) for assessment of mTORC1 and mTORC2 inhibition, respectively. Monthly changes from baseline for chromogranin A (CgA), and for other serum hormones if elevated, were assayed locally.
This phase 1/2 study was not powered for inferential statistics and mostly descriptive statistics were used. All patients dosed with CC-223 were included in the safety analysis. The efficacy analysis included all patients completing at least one cycle of drug who had both baseline and one post-baseline tumor efficacy assessment, unless otherwise specified. Categorical baseline variables including tumor type-specific characteristics were summarized using frequency counts and percentage. Continuous demographic and baseline characteristic variables were summarized by descriptive statistics. A Wilcoxon signed rank test was used to analyse change from baseline in serum hormone levels at selected scheduled visits.

Question: What does the source list for `CO[C@H]1CC[C@H](N2C(=O)CNc3ncc(-c4ccc(C(C)(C)O)nc4)nc32)CC1` [CC-223]?
Answer: Volume of tumors that progressed on rapamycin, after treatment [1]: remained stable or decreased in volume from baseline; HED (human equivalent dose) of STD10 ([2]; 60-kg human body weight): 96 mg; HED (human equivalent dose) of STD10 ([2]; FDA conversion factors): 1.6 mg/kg; Patients with ≥50% decline from baseline in CgA [3]: 7 patients; Patients with ≥50% decline from baseline in gastrin [3]: 6 patients; Patients with ≥50% decline from baseline in glucagon [3]: 3 patients; Patients with ≥50% decline from baseline in serotonin [3]: 2 patients
